For two molecules, EC50 results are on record in publication doi:10.1101/2022.09.19.508609v1 (biorxiv, 2022).

Each structure is given as a SMILES string.

One assay addresses T1, AgamOr53 + AgamOrco (Anopheles gambiae, UniProt A0ABK8FS74).
T1 sequence (A0ABK8FS74 1-384): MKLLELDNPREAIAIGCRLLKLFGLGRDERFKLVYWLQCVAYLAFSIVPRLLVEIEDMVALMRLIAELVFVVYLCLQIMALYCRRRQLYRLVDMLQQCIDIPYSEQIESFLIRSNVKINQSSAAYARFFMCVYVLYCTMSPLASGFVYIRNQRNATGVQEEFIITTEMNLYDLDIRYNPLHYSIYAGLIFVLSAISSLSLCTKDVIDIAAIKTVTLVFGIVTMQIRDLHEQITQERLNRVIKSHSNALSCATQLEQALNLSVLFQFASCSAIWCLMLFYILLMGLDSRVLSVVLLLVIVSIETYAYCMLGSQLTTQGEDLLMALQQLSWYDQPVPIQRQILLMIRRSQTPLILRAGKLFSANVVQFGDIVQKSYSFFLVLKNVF
T1 sequence (Q7QCC7 1-478 partner): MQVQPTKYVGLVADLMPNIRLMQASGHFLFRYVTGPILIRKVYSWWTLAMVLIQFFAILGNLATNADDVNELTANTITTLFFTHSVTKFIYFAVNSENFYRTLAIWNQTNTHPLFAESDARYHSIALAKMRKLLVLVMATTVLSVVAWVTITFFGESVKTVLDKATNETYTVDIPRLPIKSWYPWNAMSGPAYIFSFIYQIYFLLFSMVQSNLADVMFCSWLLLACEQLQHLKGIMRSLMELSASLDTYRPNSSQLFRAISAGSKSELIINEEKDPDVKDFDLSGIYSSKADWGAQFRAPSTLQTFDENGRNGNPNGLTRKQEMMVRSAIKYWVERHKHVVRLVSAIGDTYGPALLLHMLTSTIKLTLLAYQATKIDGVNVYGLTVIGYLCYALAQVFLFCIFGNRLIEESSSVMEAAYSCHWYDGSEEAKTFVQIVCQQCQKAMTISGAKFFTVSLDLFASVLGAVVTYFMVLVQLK
Description: two-electrode voltage clamp, Xenopus oocytes. Type of assay: cell-based.

Another assay concerns the target T2, AgamOr29 + AgamOrco (Anopheles gambiae, UniProt A0A1S4H074).
T2 sequence (A0A1S4H074 1-384): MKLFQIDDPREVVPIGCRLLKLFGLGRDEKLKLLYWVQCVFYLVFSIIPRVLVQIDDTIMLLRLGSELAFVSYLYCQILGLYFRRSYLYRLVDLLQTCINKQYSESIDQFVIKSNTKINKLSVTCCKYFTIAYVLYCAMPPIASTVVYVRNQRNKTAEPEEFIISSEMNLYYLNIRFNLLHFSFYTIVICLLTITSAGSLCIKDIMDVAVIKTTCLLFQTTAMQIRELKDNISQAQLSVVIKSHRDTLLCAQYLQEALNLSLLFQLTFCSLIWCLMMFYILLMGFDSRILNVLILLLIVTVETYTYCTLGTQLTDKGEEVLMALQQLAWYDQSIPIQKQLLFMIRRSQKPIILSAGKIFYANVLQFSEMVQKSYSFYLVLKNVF
T2 sequence (Q7QCC7 1-478 partner): T1 sequence (Q7QCC7 1-478 partner)
In words: two-electrode voltage clamp, Xenopus oocytes. Format: cell-based.

In the case of `C=C[C@@](C)(O)CCC=C(C)C` [(S)-(+)-linalool], the 50% effective concentration (EC50) (commonly the concentration giving half of the maximal effect) at AgamOr53 + AgamOrco was 19.1 µM; at AgamOr29 + AgamOrco, 7.1 µM.
The corresponding values for `C=C[C@](C)(O)CCC=C(C)C` [(R)-(–)-linalool] are 14.9 µM and 14.7 µM.
